This note sets out measurements from ChEMBL document CHEMBL6134844, “Development of Next-Generation Antimalarial Acridones with Radical Cure Potential” (J Med Chem, 2025).

Data set [1] concerns Plasmodium falciparum. In words: Antiplasmodial activity against asexual blood-stage (ABS) CQ-sensitive Plasmodium falciparum D6 infected in human erythrocytes assessed as reduction in fluorescence measured after 72 hrs by Malaria SYBR Green I-based Fluorescence (MSF) assay. It is filed as functional, organism-based. To be noted: D6, Erythrocyte.
Data set [2] has as its system Plasmodium falciparum. Kind of data set: Antiplasmodial activity against asexual blood-stage (ABS) MDR Plasmodium falciparum Dd2 infected in human erythrocytes assessed as reduction in fluorescence measured after 72 hrs by Malaria SYBR Green I-based Fluorescence (MSF) assay. It is filed as functional, organism-based. To be noted: Dd2, Erythrocyte.
The test system of data set [3] is Plasmodium falciparum. Kind of data set: Antiplasmodial activity against asexual blood-stage (ABS) ATV-resistant clinical isolate Plasmodium falciparum Tm90-C2B infected in human erythrocytes assessed as reduction in fluorescence measured after 72 hrs by Malaria SYBR Green I-based Fluorescence (MSF) assay. The class given is functional, organism-based. The note with it: Erythrocyte.

The subject of data set [4] is HepG2. In words: Cytotoxicity against human HepG2 cells assessed as cell viability measured after 48 hrs by MTT assay. To be noted: HepG2, 48 h. The class given is functional, cell-based. On the technique in general: Tetrazolium dyes change colour on reduction, which living cells bring about.
The subject of data set [5] is Plasmodium cynomolgi. In words: Antiplasmodial activity against hypnozoite Plasmodium cynomolgi B strain infected in Macaca mulatta hepatocytes incubated with sporozoite containing salivary gland homogenate obtained from dissected Anopheles dirus mosquitoes (infected with Plasmodium cynomolgi B strain) treatment started on day 4 post infection and continued daily for 4 days into fresh changed media until day 8 assessed as Liver stage (LS) activity by measuring prophylactic mode by immunofluorescent staining analysis. The note with it: Hepatocyte. It is filed as functional, organism-based.

Data set [6] has as its system Plasmodium cynomolgi. In words: Antiplasmodial activity against schizont Plasmodium cynomolgi B strain infected in Macaca mulatta hepatocytes incubated with sporozoite containing salivary gland homogenate obtained from dissected Anopheles dirus mosquitoes (infected with Plasmodium cynomolgi B strain) treatment started on day 4 post infection and continued daily for 4 days into fresh changed media until day 8 assessed as Liver stage (LS) activity by measuring prophylactic mode by immunofluorescent staining analysis. To be noted: Hepatocyte. The class given is functional, organism-based.

For data set [7], the system named is Plasmodium cynomolgi. Kind of data set: Antiplasmodial activity against hypnozoite Plasmodium cynomolgi B strain infected in Macaca mulatta hepatocytes incubated with sporozoite containing salivary gland homogenate obtained from dissected Anopheles dirus mosquitoes (infected with Plasmodium cynomolgi B strain) treatment started on day 4 post infection and continued daily for 4 days into fresh changed media until day 8 assessed as Liver stage (LS) activity by measuring radical cure mode by immunofluorescent staining analysis. The class given is functional, organism-based. To be noted: Hepatocyte.

Data set [8] concerns Plasmodium cynomolgi. In words: Antiplasmodial activity against schizont Plasmodium cynomolgi B strain infected in Macaca mulatta hepatocytes incubated with sporozoite containing salivary gland homogenate obtained from dissected Anopheles dirus mosquitoes (infected with Plasmodium cynomolgi B strain) treatment started on day 4 post infection and continued daily for 4 days into fresh changed media until day 8 assessed as Liver stage (LS) activity by measuring radical cure mode by immunofluorescent staining analysis. It is filed as functional, organism-based. The note with it: Hepatocyte.

Data set [9] in a line: Selectivity index, ratio of CC50 for Macaca mulatta hepatocytes to IC50 for antiplasmodial activity against hypnozoite Plasmodium cynomolgi B strain infected in Macaca mulatta hepatocytes incubated with sporozoite containing salivary gland homogenate obtained from dissected Anopheles dirus mosquitoes (infected with Plasmodium cynomolgi B strain) treatment started on day 4 post infection and continued daily for 4 days into fresh changed media until day 8 assessed as Liver stage (LS) activity by measuring prophylactic mode by immunofluorescent staining analysis. It is filed as toxicity, cell-based. The note with it: rhesus monkey, read-out: Selectivity Index.

Data set [10] is described as follows: Selectivity index, ratio of CC50 for Macaca mulatta hepatocytes to IC50 for antiplasmodial activity against schizont Plasmodium cynomolgi B strain infected in Macaca mulatta hepatocytes incubated with sporozoite containing salivary gland homogenate obtained from dissected Anopheles dirus mosquitoes (infected with Plasmodium cynomolgi B strain) treatment started on day 4 post infection and continued daily for 4 days into fresh changed media until day 8 assessed as Liver stage (LS) activity by measuring prophylactic mode by immunofluorescent staining analysis. The class given is toxicity, cell-based. The note with it: rhesus monkey, read-out: Selectivity Index.

Data set [11] can be described thus: Selectivity index, ratio of CC50 for Macaca mulatta hepatocytes to IC50 for antiplasmodial activity against hypnozoite Plasmodium cynomolgi B strain infected in Macaca mulatta hepatocytes incubated with sporozoite containing salivary gland homogenate obtained from dissected Anopheles dirus mosquitoes (infected with Plasmodium cynomolgi B strain) treatment started on day 4 post infection and continued daily for 4 days into fresh changed media until day 8 assessed as Liver stage (LS) activity by measuring radical cure mode by immunofluorescent staining analysis. It is filed as toxicity, cell-based. The note with it: rhesus monkey, read-out: Selectivity Index.

The nature of data set [12]: Selectivity index, ratio of CC50 for Macaca mulatta hepatocytes to IC50 for antiplasmodial activity against schizont Plasmodium cynomolgi B strain infected in Macaca mulatta hepatocytes incubated with sporozoite containing salivary gland homogenate obtained from dissected Anopheles dirus mosquitoes (infected with Plasmodium cynomolgi B strain) treatment started on day 4 post infection and continued daily for 4 days into fresh changed media until day 8 assessed as Liver stage (LS) activity by measuring radical cure mode by immunofluorescent staining analysis. It is filed as toxicity, cell-based. To be noted: rhesus monkey, read-out: Selectivity Index.

For data set [13], the system named is Hepatocyte. Kind of data set: Cytotoxicity against Macaca mulatta hepatocytes assessed as cell viability measured after 48 hrs by MTT assay. The class given is toxicity, cell-based. To be noted: rhesus monkey, 48 h.
For data set [14] the following is noted: human, microsomes, 1 h.
For data set [15] the following is noted: mouse, microsomes, 1 h.

The term IC50 denotes the concentration needed to halve the response being measured. The term CC50 denotes the concentration giving 50% cytotoxicity. In the case of `O=c1c2ccc(Oc3ccc(OC(F)(F)F)cc3)cc2[nH]c2ccc(Cl)c(F)c12`, the IC50 in data set [1] is 0.191 nM; in [2], 0.2 nM; in [3] it was 277 nM; in data set [4] it was above 200 µM; in [5], 400 nM; in data set [6], 50 nM. Also, the IC50 in data set [7] worked out at 4.12 µM; in data set [8], 2.11 µM. In addition, the selectivity ratio at 96 h is 11.4 in data set [9], 91.6 in data set [10], 1.11 in [11] and 2.17 in [12]. In data set [13], the CC50 turned out to be 4.58 µM. The molecule also yielded a t1/2 in data set [14] above 60 min. Also, the CLH in data set [15] was below 3.125 µL/min/mg.

For the molecule `O=c1c2ccc(Oc3ccccc3OC(F)(F)F)cc2[nH]c2cc(Cl)cc(F)c12`, the IC50 in [1] was 0.005 nM; in data set [2] it was 0.005 nM; in [3] it was 28.8 nM; in data set [4], above 200 µM; in data set [5], 1370 nM; in data set [6] it was 80 nM. Besides, the figures for the IC50 in data set [7] and in data set [8] were 4.56 µM and 4.21 µM, respectively. The selectivity ratio at 96 h stood at 6.72 in data set [9], 115 in [10], 2.02 in [11] and 2.19 in data set [12]. Further, the CC50 in data set [13] came to 9.21 µM. The molecule also registered a CLH in data set [15] of 72.3 µL/min/mg.

As to `CC(C)(C)OC(=O)N1CCC(Oc2ccc3c(=O)c4c(Cl)cc(F)cc4[nH]c3c2)CC1`, the IC50 in data set [1] was 36.7 nM; in [2] it was 45.7 nM; in data set [3] it was above 2500 nM; in data set [4], 90.2 µM; in data set [5], 1370 nM; in [6], 150 nM. Also, the IC50 in [7] came to 4.44 µM; in data set [8], 3.94 µM. Also, the selectivity ratio at 96 h in data set [9] amounted to 3.45; in data set [10], 31.5; in data set [11], 1.06; in [12], 1.2. Further, the CC50 in [13] was 4.73 µM. Further, the t1/2 in data set [14] was above 60 min. Moreover, the CLH in data set [15] is below 3.125 µL/min/mg.

On to `O=c1c2cccc(Oc3ccc(OC(F)(F)F)cc3)c2[nH]c2cc(Cl)cc(F)c12`, for which the IC50 was 383 nM in data set [1]; 188 nM in [2]; above 2500 nM in data set [3]; 92.9 µM in data set [4]; 13600 nM in [5]; 3330 nM in [6]. In addition, the concentration for half-maximal inhibition (IC50) in data set [7] and in data set [8] was above 20 µM in each case. Moreover, the selectivity ratio at 96 h is above 1.47 in data set [9] and above 6.01 in data set [10]. In addition, in data set [13], the CC50 is above 20 µM. The t1/2 in data set [14] is listed as above 60 min. The same molecule registered a CLH in [15] of 25.5 µL/min/mg.

For the molecule `CO[C@@H]1[C@@H](OC)[C@H](C)[C@@](O)(CC(=O)O)O[C@H]1[C@H](C)[C@H]1O[C@@]2(CC[C@@](C)([C@H]3CC[C@@](C)([C@@H]4O[C@@H]([C@H]5O[C@](C)(O)[C@H](C)C[C@@H]5C)C[C@@H]4O[C@@H]4C[C@H](OC)[C@@H](OC)[C@H](C)O4)O3)O2)C[C@H](O)[C@H]1C` [MADURAMICIN ACID], the half-inhibitory concentration (IC50) in data set [5] was determined as 10 nM; in data set [6] it was 30 nM; in data set [7], 0.03 µM; in data set [8], 0.04 µM. Further, the selectivity ratio at 96 h in [9] was found to be 236; in [10], 78.7; in [11] it was 78.7; in data set [12] it was 59. Further, the CC50 in [13] amounted to 2.36 µM.

As to `O=c1c2c(F)cc(Cl)cc2[nH]c2cccc(Oc3ccc(OC(F)(F)F)cc3)c12`, the IC50 is 87.8 nM in [1]; 188 nM in [2]; above 2500 nM in [3]; 189 µM in [4]; above 20000 nM in [5]; 7370 nM in [6]. The IC50 was above 20 µM in [7] and 16.6 µM in data set [8]. For the same molecule, the selectivity ratio at 96 h is above 2.71 in [10] and above 1.2 in [12]. Besides, in [13], the cytotoxic concentration (CC50) was above 20 µM. The molecule further yielded a t1/2 in [14] above 60 min. The molecule also came in with a CLH in data set [15] of 45.4 µL/min/mg.

`O=c1c2ccc(OC3CCNCC3)cc2[nH]c2cc(F)cc(Cl)c12`: the IC50 was 27.2 nM in data set [1]; 31.4 nM in data set [2]; above 2500 nM in data set [3]; 48.9 µM in data set [4]; 5950 nM in [5]; 4060 nM in data set [6]. The IC50 in data set [7] was above 20 µM; in data set [8], 13.8 µM. Also, the values for the selectivity ratio at 96 h in data set [9], in [10] and in data set [12] were above 3.36, above 4.92 and above 1.45, respectively. Further, the half-maximal cytotoxic concentration (CC50) in data set [13] was above 20 µM. Besides, the t1/2 in [14] was above 60 min. In addition, the CLH in data set [15] is 72.1 µL/min/mg.

As for `O=c1c2ccc(OC3CCNCC3)cc2[nH]c2cc(Cl)cc(F)c12`, the IC50 in data set [1] is 662 nM; in data set [2], 121 nM; in [3], above 2500 nM; in data set [4] it was 38.2 µM.

Take `O=c1c2ccc(Oc3ccc(OC(F)(F)F)cc3)cc2[nH]c2cc(Cl)c(F)cc12`: the 50% inhibitory concentration (IC50) was 14.4 nM in [1]; 11.1 nM in [2]; 1520 nM in data set [3]; above 200 µM in data set [4]; 1290 nM in [5]; 270 nM in data set [6]. In addition, the IC50 in [7] and in [8] was above 20 µM each time. Moreover, the selectivity ratio at 96 h was above 15.5 in [9] and above 74.1 in data set [10]. Further, the CC50 in data set [13] is above 20 µM. This molecule showed a t1/2 in data set [14] above 60 min. In [15], the CLH was 177 µL/min/mg.

Consider `CN1CCC(Oc2ccc3c(=O)c4c(F)cc(Cl)cc4[nH]c3c2)CC1`, for which the IC50 in data set [1] was 11.2 nM; in [2], 23.1 nM; in data set [3], above 2500 nM; in [4], 55.6 µM; in [5] it was 5700 nM; in data set [6], 540 nM. The IC50 in [7] came out at 18.2 µM; in data set [8], 9.88 µM. Also, the selectivity ratio at 96 h in data set [9] is above 3.51; in [10], above 37; in [11], above 1.1; in [12], above 2.02. In addition, the half-maximal cytotoxic concentration (CC50) in [13] was above 20 µM. Also, the CLH in data set [15] was 209.5 µL/min/mg.

In the case of `O=c1c2ccccc2[nH]c2cc(Oc3ccc(OC(F)(F)F)cc3)ccc12`, the IC50 was 0.019 nM in data set [1]; 0.03 nM in data set [2]; 3.3 nM in data set [3]; above 200 µM in data set [4]; 1570 nM in data set [5]; 540 nM in data set [6]. In addition, the IC50 in data set [7] is 3.02 µM; in [8] it was 1.84 µM. Besides, the selectivity ratio at 96 h in [9] came out at 2.01; in data set [10], 5.85; in [11], 1.05; in [12], 1.72. The 50% cytotoxic concentration (CC50) in data set [13] worked out at 3.16 µM. Besides, in data set [15], the CLH was 11.5 µL/min/mg.
